Laboratory results: patent US12263180B2, “Method for treatment of COVID-19-associated conditions” (priority 2020, dated 2025)
Converted amounts (≈) assume the structure as drawn. Like-named read-outs stand apart in the source and are kept apart here.

Legend:
[1] = tested on: COVID-19; conditions: critically ill COVID-19 patients, compared to standard care; cited from earlier work
[2] = tested on: COVID-19; experiment: Phase 3 placebo-controlled study in hospitalized COVID-19 patients; assay type: in vivo
[3] = in vivo
[4] = tested on: chronic immune thrombocytopenia (ITP); conditions: ITP patients, two randomized studies; cited from earlier work
[5] = tested on: IL-6; conditions: RA patients, within the first week of treatment; cited from earlier work
[6] = tested on: human neutrophils; conditions: in vitro; cited from earlier work
[7] = physchem; conditions: aqueous buffer
[8] = human, in vivo; cited from earlier work
[9] = tested on: LPS-induced ALI; conditions: mice; cited from earlier work
[10] = tested on: MUC1; conditions: mouse model of ALI; cited from earlier work
[11] = water solubility in aqueous buffer under physiological conditions
[12] = tested on: SARS-CoV-2 as well as other human and bat coronaviruses; conditions: mice; cited from earlier work
[13] = tested on: SARS-CoV-2 as well as other human and bat coronaviruses; conditions: human airway epithelial cells; cited from earlier work
[14] = biological target: human ACE2 (Homo sapiens, UniProt Q9BYF1); conditions: cited from earlier work
Sequence of human ACE2 (Q9BYF1 18-805): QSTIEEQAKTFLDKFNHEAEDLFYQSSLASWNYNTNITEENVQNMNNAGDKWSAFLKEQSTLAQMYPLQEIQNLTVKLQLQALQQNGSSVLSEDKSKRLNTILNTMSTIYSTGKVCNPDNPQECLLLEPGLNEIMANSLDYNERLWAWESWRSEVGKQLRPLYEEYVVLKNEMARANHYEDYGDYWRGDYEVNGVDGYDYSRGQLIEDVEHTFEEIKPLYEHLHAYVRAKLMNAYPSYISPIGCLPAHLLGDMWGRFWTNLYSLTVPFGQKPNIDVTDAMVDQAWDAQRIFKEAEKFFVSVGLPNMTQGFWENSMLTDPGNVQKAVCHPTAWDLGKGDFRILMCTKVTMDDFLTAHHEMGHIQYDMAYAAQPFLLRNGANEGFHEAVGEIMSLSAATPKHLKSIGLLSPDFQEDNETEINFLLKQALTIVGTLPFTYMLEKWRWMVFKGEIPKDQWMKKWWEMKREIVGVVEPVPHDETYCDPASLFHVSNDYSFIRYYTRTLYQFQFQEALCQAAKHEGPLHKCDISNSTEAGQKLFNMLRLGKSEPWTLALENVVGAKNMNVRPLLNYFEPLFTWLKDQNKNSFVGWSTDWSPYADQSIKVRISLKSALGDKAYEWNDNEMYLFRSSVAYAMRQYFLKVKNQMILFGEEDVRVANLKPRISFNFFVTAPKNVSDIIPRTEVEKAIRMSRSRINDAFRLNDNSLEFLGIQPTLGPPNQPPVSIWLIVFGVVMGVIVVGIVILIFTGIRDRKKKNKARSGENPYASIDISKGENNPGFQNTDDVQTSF

Q: Which mortality rate [1] does the source give for C[C@]12CCC(=O)C=C1CC[C@@H]1[C@@H]2[C@@H](O)C[C@@]2(C)[C@H]1CC[C@]2(O)C(=O)CO [hydrocortisone, Hydrocortisone] here?
A: effective in reducing mortality rate

Q: For COc1cc(Nc2ncc(F)c(Nc3ccc4c(n3)N(COP(=O)(O)O)C(=O)C(C)(C)O4)n2)cc(OC)c1OC [Compound 4], which “occurrence of several severe symptoms of COVID-19 (AKI, kidney malfunction, acute lung injury, thrombosis, coagulopathy)” value ([2]; vs placebo) is on record?
A: significantly reduced

Q: What about the “percentage of COVID-19 infected patients that develop severe disease that requires intensive care” value ([2]; vs placebo) of the same compound?
A: significantly reduce

Q: And the “percentage of patients developing severe or critical disease” value ([2]; within 29 days of first dose, vs placebo)?
A: significantly smaller percentage

Q: What about the “percentage of patients that develop ARDS” value ([2]; within patients requiring intensive care) of the same compound?
A: significantly reduce

Q: And the “number of patients that die” value ([2]; within patients that develop ARDS)?
A: significantly reduce

Q: What about the “oral bioavailability when formulated with progroup -CH2-O-P(O)(OH)2” value [3] of the same compound?
A: increased dramatically

Q: And the bleeding episodes [4]?
A: decreased bleeding episodes

Q: What about the platelet counts [4] of the same compound?
A: increased platelet counts

Q: What about the “plasma levels of IL-6” value [5] of the same compound?
A: reduce plasma levels of IL-6

Q: What about the NETosis [6] of the same compound?
A: block NETosis

Q: What about the solubility [7] of the same compound?
A: > 5000 µg/mL

Q: And the safety profile [8]?
A: manageable safety profile

Q: With COc1cc(Nc2ncc(F)c(Nc3ccc4c(n3)NC(=O)C(C)(C)O4)n2)cc(OC)c1OC [Compound 1, N4-(2,2-Dimethyl-3-oxo-4H-5-pyrid[1,4]oxazin-6-yl)-5-fluoro-N2-(3,4,5-trimethoxyphenyl)-2,4-pyrimidinediamine] as the compound, how does the “protection in LPS-induced ALI” value [9] read?
A: protective

Q: And the MUC1 [10]?
A: reduced MUC1

Q: What about the solubility [11] of the same compound?
A: 1 to 2 µg/mL (≈ 2.13 to 4.25 µM)

Q: For O=c1nc(NO)ccn1[C@@H]1O[C@H](CO)[C@@H](O)[C@H]1O [N4-hydroxycytidine], which inhibition of coronaviruses [12] is on record?
A: inhibit SARS-CoV-2 as well as other human and bat coronaviruses

Q: And the inhibition of coronaviruses [13]?
A: inhibit SARS-CoV-2 as well as other human and bat coronaviruses

Q: Which IC50 [14] does the source give for N[C@@H](CCN[C@@H](CCN1CC[C@H]1C(=O)O)C(=O)O)C(=O)O [nicotianamine] here?
A: 84 nM
